The source of these data is article PMC12306736 (PLOS Genetics, 2025).

Series [1] deals with B. abortus. The format is cell-based, Brucella abortus.
Series [2] has as its system B. ovis. The format is cell-based, Brucella ovis.
Series [3] has as its system THP-1 cells. The following applies: human.
The subject of series [4] is B. ovis. Description: microbe, parasite or virus in culture. In kind it is cell-based, Brucella ovis. The following applies: for IC50: Brucella ovis.
The subject of series [5] is B. ovis. Briefly: microbe, parasite or virus in culture. The format is cell-based, Brucella ovis. The following applies: for IC50: Brucella ovis. This is another data set of the same source.
The test system of series [6] is B. ovis. The format is cell-based, Brucella ovis. This is another data set of the same source.
The test system of series [7] is B. abortus. The format is cell-based.
In series [8] the test system is B. ovis. The format is cell-based, Brucella ovis. This is another data set of the same source.
In series [9] the test system is B. abortus. Briefly: microbe, parasite or virus in culture. In kind it is cell-based. Conditions: Brucella abortus, THP-1, 48 h, read-out: IC50, intracellular B. abortus in THP-1 cells.
Series [10] concerns B. ovis. In kind it is cell-based, Brucella ovis. This is another data set of the same source.
Series [11] relates to B. abortus. In kind it is cell-based, Brucella abortus. The source holds these as a separate data set.
In series [12] the test system is B. abortus. In kind it is cell-based, Brucella abortus. The source holds these as a separate data set.
Series [13] relates to THP-1 macrophage-like cells. The format is cell-based, human.
[14] abbreviates: THP-1, read-out: Intracellular IC50.
Setting [15] is: 48 h, read-out: Axenic B. ovis IC50 (Fig 1B).
[16] abbreviates: THP-1, 48 h, read-out: IC50 for inhibiting intracellular growth of B. ovis.

Structures are written as SMILES. Read-outs that look alike come from different tables or passages of the source. A value given as a limit tells only on which side of the number the result lay.

As for `C[C@H](CCC(=O)NCCC[N+](C)(C)CCCS(=O)(=O)[O-])[C@H]1CC[C@H]2[C@@H]3[C@H](O)C[C@@H]4C[C@H](O)CC[C@]4(C)[C@H]3C[C@H](O)[C@]12C` [CHAPS], the “Effect of bepE disruption on B. abortus sensitivity on solid media” value (“Effect of bepE disruption” below) in series [1] is reported as “did not affect sensitivity”. The “Sensitivity of wild-type B. ovis on TSA blood plates” value (shortened to “Sensitivity of wild-type B. ovis”) in series [2] was “highly sensitive”.
Broadly, the CC50 is the concentration that lowers cell viability or growth by half. The IC50 is the concentration that inhibits the measured activity by half. With `c1ccc(-c2ccc(C(c3ccccc3)n3ccnc3)cc2)cc1` (stereo not drawn) [Bifonazole], the CC50 in [3] is > 50 µM. Also, the IC50 in series [4] (read-out: Axenic IC50) was found to be 4 µM; in series [5] (setting [14]) it was 14 µM. Further, the “Outcome of validation assays” value in [5] was “inhibitors of intracellular replication that were not toxic to host cells”.
Take `CC1(C)S[C@@H]2[C@H](NC(=O)C(C(=O)O)c3ccccc3)C(=O)N2[C@H]1C(=O)O` (stereo partly drawn) [carbenicillin]: the “Sensitivity of wild-type B. ovis” value in series [2] is given as “moderately sensitive”.
In [3], `COc1ccc(CN2CCN(C(c3ccc(F)cc3)c3ccc(F)cc3)CC2)c(OC)c1OC` [Lomerizine] returned a CC50 of 50 µM. For the same molecule, the IC50 in series [4] (read-out: Axenic IC50) was > 50 µM; in [5] (setting [14]), 9 µM. For the same molecule, in [5], the “Outcome of validation assays” value is given as “inhibitors of intracellular replication that were not toxic to host cells”.
Molecule `OCCN(CCO)c1nc(N2CCCCC2)c2nc(N(CCO)CCO)nc(N3CCCCC3)c2n1` [Dipyridamole] returned a CC50 in [3] of 41 µM. Moreover, the IC50 in [4] (read-out: Axenic IC50) and in series [5] (setting [14]) was > 50 µM throughout.
As to `COC(=O)C1=C(C)NC(C)=C(C(=O)OC)C1c1ccccc1[N+](=O)[O-]` [nifedipine], the “Hit status in B. ovis intracellular screen” value in series [6] is reported as “neither compound emerged as a hit”.
Regarding `CCOc1ccc(NC(C)=O)cc1` [Phenacetin], in series [3], the CC50 is > 50 µM. The IC50 in series [4] (read-out: Axenic IC50) and in series [5] (setting [14]) was > 50 µM throughout.
As for `COc1ccc(CCN(C)CCCC(C#N)(c2ccc(OC)c(OC)c2)C(C)C)cc1OC` (stereo not drawn) [verapamil], the “Hit status in B. ovis intracellular screen” value in series [6] is “neither compound emerged as a hit”.
As for `CC(=O)SCC(Cc1ccccc1)C(=O)NCC(=O)OCc1ccccc1` (stereo not drawn) [Racecadotril], the CC50 in series [3] is > 50 µM. Besides, the IC50 in [4] (read-out: Axenic IC50) and in [5] (setting [14]) was > 50 µM in each case.
For `CC1(C)S[C@@H]2[C@H](NC(=O)Cc3ccccc3)C(=O)N2[C@H]1C(=O)O` [Penicillin G], the “Increase in susceptibility of B. abortus on deletion of bepE (spot-titration on agar)” value in series [1] was “approximately five”. Further, the “Differential growth of B. abortus WT and ΔbepE in Biolog phenotype microarray” value in series [7] is “markedly inhibiting ΔbepE but not WT growth”.
For `CCCCCCCCCCCCOS(=O)(=O)[O-].[Na+]` [SDS, sodium dodecyl sulfate], the “Sensitivity of wild-type B. ovis” value in [2] is “highly sensitive”.
In the case of `N[C@@H]1C[C@H]1c1ccccc1` (racemic) [Tranylcypromine], the CC50 in series [3] was > 50 µM. The half-inhibitory concentration (IC50) in series [4] (read-out: Axenic IC50) and in [5] (setting [14]) was > 50 µM in each case.
As for `COCCOC(=O)C1=C(C)NC(C)=C(C(=O)OC/C=C/c2ccccc2)C1c1cccc([N+](=O)[O-])c1` (stereo not drawn) [Cilnidipine], in [8], the “Axenic inhibition in high-throughput screen” value is given as < 35%. In addition, the IC50 was 13.5 µM in series [9]; 5.09 µM in series [4] (setting [15]); ~5 µM in series [4] (48 h, read-out: Axenic IC50, B. ovis); 5 µM in series [4] (read-out: Axenic IC50); 2.5 µM in series [5] (setting [16]); 2 µM in [5] (setting [14]). Further, in series [3], the CC50 is > 50 µM. For the same molecule, the “THP-1 host cell viability” value in series [3] is “does not affect THP-1 host cell viability”. The “Effect of bepE disruption” value in series [1] is reported as “did not affect sensitivity”. Further, the “Growth of WT B. ovis in liquid culture” value in [10] is given as “failed to grow over 72 h”. For the same molecule, the “Concentrations giving complete growth inhibition of axenic B. ovis” value in series [4] is ≥ 10 µM. Further, in series [11], the “Sensitivity of WT B. abortus in axenic conditions” value is recorded as “insensitive”. The “Sensitivity of ∆bepE B. abortus in axenic conditions” value in [11] is “insensitive”. For the same molecule, in [5], the “Outcome of validation assays” value was “inhibitors of intracellular replication that were not toxic to host cells”. Besides, in series [12], the “Effect of bepE deletion on B. abortus sensitivity in THP-1 cells” value is given as “increase sensitivity”.
The molecule `O=C1CCc2ccc(OCCCCN3CCN(c4cccc(Cl)c4Cl)CC3)cc2N1` [Aripiprazole] showed a CC50 in series [3] of 12 µM.
Turning to `CCCCN(CCCC)CCC(O)c1cc2c(Cl)cc(Cl)cc2c2cc(C(F)(F)F)ccc12` (stereo not drawn) [Halofantrine], the CC50 in [3] was > 50 µM. In addition, the IC50 in series [4] (read-out: Axenic IC50) was 11 µM; in series [5] (setting [14]), > 50 µM.
For the molecule `COC(=O)C1=C(C)NC(C)=C(C(=O)OCCN(C)Cc2ccccc2)C1c1cccc([N+](=O)[O-])c1` (stereo not drawn) [Nicardipine], in series [9], the IC50 came out at 4.4 µM. In [3], it took 49 µM to reach half-maximal cytotoxicity (CC50) and the “THP-1 host cell viability” value is on record as “does not affect THP-1 host cell viability”. Further, the “Effect of bepE disruption” value in series [1] is on record as “did not affect sensitivity”. In [10], the “Growth of WT B. ovis in liquid culture” value is listed as “modest lag”. For the same molecule, the “Effect on terminal optical density of axenic B. ovis” value in series [4] is on record as “no effect on the terminal optical density at any concentration tested”. The IC50 in [4] (setting [15]) is > 25 µM. The half-maximal inhibitory concentration (IC50) in [4] (read-out: Axenic IC50) was > 50 µM. In addition, in series [11], the “Sensitivity of WT B. abortus in axenic conditions” value is “insensitive” and the “Sensitivity of ∆bepE B. abortus in axenic conditions” value was “insensitive”. In addition, the “Outcome of validation assays” value in series [5] is recorded as “inhibitors of intracellular replication that were not toxic to host cells”. Moreover, the IC50 in series [5] (setting [16]) amounted to 2.3 µM. The IC50 in [5] (setting [14]) was 2 µM. In series [12], the “Effect of bepE deletion on B. abortus sensitivity in THP-1 cells” value is listed as “did not alter sensitivity” and the “Wild-type B. abortus CFUs recovered from treated THP-1 cells compared to untreated controls” value is “significantly fewer”. Also, in [13], the “Increase in intracellular calcium level” value is 20–40%, the “Increase in intracellular manganese level” value was 20–40% and the “Other metal levels in THP-1 cells” value is “Most metal levels remained unchanged”.
